# According to patent US7875599B2, “C-17-heteroaryl steroidal CYP17 inhibitors/antiandrogens, in vitro biological activities, pharmacokinetics and antitumor activity” (University of Maryland, priority 2005, dated 2011):
# “Also recorded” adds a separate entry of the source. Read-outs that look alike come from different tables or passages of the source.
# How the values were obtained:
# [1] = system: LAPC4 human prostate tumor xenograft; test: LAPC4 xenograft, first experiment (established tumors, 4 weeks of treatment); format: in vivo, mouse; details: 28 days
# Protocol: In the first experiment, the effect of compounds 5 and 6 on the growth of well-established LAPC4 prostate cancer tumors in SCID mice is determined, and castration is used as the reference treatment. Tumor-bearing mice are assigned (n=5/group) to receive one of two doses of 5 or 6 (0.15 mmol/kg once-daily or 0.15 mmol/kg twice-daily). Tumor volumes are measured weekly and compared with controls receiving vehicle or castrated mice.
# In Vivo Antitumor Studies (LAPC-4 Prostate Cancer Xenografts): All animal studies are performed according to the guidelines and approval of the Animal Care Committee of the University of Maryland School of Medicine, Baltimore. Male severe combined immunodeficient (SCID) mice 4-6 weeks of age purchased from the National Cancer Institute-Frederick Cancer Research and Development Center (Fredrick, Md.) are housed in a pathogen-free environment under controlled conditions of light and humidity and allowed free access to food and water. Tumors are developed from LAPC4 cells inoculated subcutaneously (s.c.) in the mice essentially as previously described (21). LAPC4 cells are grown in IMEM with 15% FBS plus 1% PS and 10 nm DHT until 80% confluent. Cells are scraped into DPBS, collected by centrifugation, and resuspended in Matrigel (10 mg/ml) at 3×10^7 cells/ml. Mice are injected s.c. with 100 μl of the cell suspension at one site on each flank. Tumors are measured weekly with calipers, and tumor volumes are calculated by the formula: […]).
# In the first experiment, LAPC4 tumors are allowed to grow for 8-10 weeks following inoculation. […] Mice are castrated under methoxyfluorane anesthesia. Compounds 5 and 6 were prepared at 17.2 mg/ml in a 0.3% solution of hydroxypropyl cellulose in saline, and mice receiv s.c. injections daily. Control and castrated mice are treated with vehicle only. Tumors are measured weekly for the 4 weeks of treatment and tumor volumes are calculated. At the end of the treatment period, the animals are sacrificed under halothane anesthesia; tumors are excised, weighed and stored at −80° C. Animals are also weighed weekly and monitored for general health status and signs of possible toxicity due to treatment.
# FIG. 6: In vivo antitumor activity of 5, 6 and orchidectomy on the growth of LAPC4 prostate tumors in male SCID mice. Groups of five mice with LAPC-4 tumors were treated with 5 (0.15 mmol/kg/day or 0.30 mmol/kg/day. Tumors volumes were measured weekly, and the percentage of change in tumor volume was determined after 28 days of treatment. The standard deviations of tumor volumes (not shown) were ±10-12% of the mean values.
# [2] = Pharmacokinetics after single s.c. dose in male SCID mice; format: in vivo, mouse; details: for peak plasma level: mice (as printed in summary b4); for half-life: male, SCID
# Text: Pharmacokinetics of 5 and 6 and metabolism of 5: The pharmacokinetic properties in male SCID mouse for the two lead compounds, 5 and 6 are studied following our recently described procedure for other CYP17 inhibitors (Nnane et al., “Pharmacokinetic profile of 3β-hydroxy-17-(1H-123-triazol-1-yl)androsta-5,16-diene (VN/87-1), a potent androgen synthesis inhibitor in mice”, J. Steroid Biochem. Molec. Biol., 2001, 71, 145-152; and Handratta et al., “Potent CYP17 inhibitors: improved syntheses, pharmacokinetics and anti-tumor activity in the LNCaP human prostate cancer model”, J. Steroid Biochem. Molec. Biol., 2004, 92, 155-165.
# Pharmacokinetic Studies All animal studies are performed according to the guidelines and approval of the Animal Care Committee of the University of Maryland School of Medicine, Baltimore. Male SCID mice weighing 20-22 gm (8-10 weeks old) obtained from NCI, Frederick, Md., USA are maintained in a controlled environment of about 25° C., 50% relative humidity and 12 h of light and 12 h of dark cycles and allowed free access to food and water. Compounds 5 and 6 are formulated in 40% β-cyclodextrin in water and a single subcutaneous dose is given to mice. The animals are sacrificed at various times up to 6 h after drug administration and blood was obtained by cardiac puncture under light halothane (Ayerst, New York, N.Y., USA) anesthesia.
# HPLC Analysis: Chromatographic separations and quantification of the steroids and the appropriate internal standards are achieved by a reverse phase HPLC method on a Waters® Novapak® C18 column (3.9×150 mm) protected by Waters® guard cartridge packed with pellicle C18 as previously described. Briefly, the HPLC system used in this study consisted of Waters® solvent delivery system, Waters® controller (Milford, Mass.), coupled to a Waters® 717^plus autosampler and a Waters® 996 photodiode array detector operated at 242.7 nm. The mobile phase composition is Water/MeOH/CH3CN (35:35:30, v/v/v+200 μl, of Et3N and 0.77 g of NH4OAc per 1000 mL of mobile phase) at a flow rate of 1.0 mL/min. The HPLC analysis is performed at ambient temperature and data acquisition and management ius achieved with a Waters® millennium chromatography manager.
# Sample Preparation: Test tubes containing mouse plasma (200 μL), 5 or 6 and VN/85-1 (internal standard, 10 μL of 100 μg/mL), are extracted with diethyl ether (2×2 mL) using a vortex mixer for 3 minutes and centrifuged at 3000 g for 5 min. The organic layers are evaporated to dryness under a gentle stream of air. The residue is reconstituted in an aliquot of the mobile phase (100 μL) and filtered using 0.2 μm Teflon filters before HPLC analysis. Calibration Curve and HPLC Assay Validation: The calibration curves for 5 in plasma and tissue and for 6 in plasma are constructed by spiking varying amounts of the compounds into extraction tubes (duplicate) containing plasma (200 μL) and tissue preparations (200 μL) from untreated animals to give final concentrations of 0.1-100.0 μg/mL. Appropriate blank extraction tubes are also prepared and an aliquot of the internal standard is added into each extraction tube to give a final concentration of 5 μg/ml. The calibration samples are taken through the sample preparation procedure as described above. An aliquot of the reconstituted extract (50 μl) is injected into the HPLC system and the ratio of the peak areas for each analyte to that of the internal standard are plotted against concentrations of 5 or 6. The precision and accuracy of the assays are determined from a range of known concentrations of the inhibitors in blank plasma and taken through the HPLC procedure. The study is repeated on three separate occasions.
# Data Analysis: Pharmacokinetic calculations are performed as previously described. The non-compartmental pharmacokinetic calculations are performed using WinNOnlin (Scientific Consulting Inc.). […]
# [3] = mouse, plasma, sc, 50 mg/kg, 50 mg/kg s.c., male SCID mice
smiles,measurement,setting,value
"C[C@]12CC[C@H](O)CC1=CC[C@@H]1[C@@H]2CC[C@]2(C)C(n3cnc4ccccc43)=CC[C@@H]12 [Compound 5, 3β-Hydroxy-17-(1H-benzimidazol-1-yl)androsta-5,16-diene]",reduction of average final tumor volume compared to vehicle-treated control,[1]; 0.15 mmol/kg once daily s.c.,41%
same,reduction of average final tumor volume compared to vehicle-treated control,[1]; 0.15 mmol/kg twice daily s.c.,86.5%
same,AUC,"[2]; 50 mg/kg s.c., male SCID mice",1440.00 ± 60.23 µg·min/mL
same,Cmax,"[2]; 50 mg/kg s.c., male SCID mice",16.82 ± 0.37 µg/mL
same,MRT,"[2]; 50 mg/kg s.c., male SCID mice",65.40 ± 0.60 min
same,Tmax,"[2]; 50 mg/kg s.c., male SCID mice",30.0 min
same,Vd,"[2]; 50 mg/kg s.c., male SCID mice",2098.99 ± 4. mL/kg
same,peak plasma level,[2]; 50 mg/kg s.c.,16.82 ng/mL
same,AUC,"[2]; 100 mg/kg s.c., male SCID mice",1813.94 ± 10.94 µg·min/mL
same,Cmax,"[2]; 100 mg/kg s.c., male SCID mice",32.23 ± 0.34 µg/mL
same,MRT,"[2]; 100 mg/kg s.c., male SCID mice",60.46 ± 1.54 min
same,Tmax,"[2]; 100 mg/kg s.c., male SCID mice",30.00 ± 0.0 min
same,Vd,"[2]; 100 mg/kg s.c., male SCID mice",113276.39 ± 26.71 mL/kg
same,half-life,[2]; [3],44.2 min
same,half-life,"[2]; mouse, plasma, sc, 100 mg/kg, 100 mg/kg s.c., male SCID mice",36.6 ± 1.6 min
same,clearance from the systemic circulation,"[2]; s.c. administration, male SCID mice",1986.14 mL/h/kg
"C[C@]12CCC(=O)C=C1CC[C@@H]1[C@@H]2CC[C@]2(C)C(n3cnc4ccccc43)=CC[C@@H]12 [Compound 6, 17-(1H-benzimidazol-1-yl)androsta-4,16-diene-3-one]",reduction of average final tumor volume compared to vehicle-treated control,[1]; 0.15 mmol/kg once daily s.c.,ineffective
same,reduction of average final tumor volume compared to vehicle-treated control,[1]; 0.15 mmol/kg twice daily s.c.,stimulation of tumor growth; also recorded: enhances tumor growth
same,Kel,"[2]; 50 mg/kg s.c., male SCID mice",0.0183 ± 0.004 min⁻¹
same,Vd,"[2]; 50 mg/kg s.c., male SCID mice",4207.24 ± 6.25 mL/kg
same,t1/2,"[2]; 50 mg/kg s.c., male SCID mice, plasma",37.93 ± 1.15 min
same,peak plasma level,[2]; 50 mg/kg s.c.,5.15 ng/mL
same,metabolism of the compound detected in plasma,[2]; in vivo pharmacokinetics in mice,did not detect any metabolism(s)
same,half-life,[2]; [3],39.9 min
same,AUC,"[2]; mouse, plasma, sc, 50 mg/kg s.c., male SCID mice, read-out: AUC (converted)",647 µg·min/mL
same,Cmax,"[2]; mouse, plasma, sc, 50 mg/kg s.c., male SCID mice, read-out: Cmax",5.15 ± 0.09 µg/mL
same,MRT,"[2]; mouse, plasma, sc, 50 mg/kg s.c., male SCID mice, read-out: MRT (converted)",80 min
same,Tmax,"[2]; mouse, plasma, sc, 50 mg/kg s.c., male SCID mice, read-out: Tmax (converted)",60 min
same,time after administration at which compound was not detected in plasma,"[2]; s.c. administration, mice",8 h
